According to US20230276794A1, “MESH MATERIALS FOR CONTROLLED RELEASE OF ANTIVIRALS, METHOD AND USE” (priority 2020, published 2023):

System: Coronavirus (MHV-3 Strain)
Format: cell-based, Coronavirus MHV-3 Strain genus Betacoronavirus
Conditions: concentration of 5%

N=C(NCCCCCCNC(=N)NC(=N)Nc1ccc(Cl)cc1)NC(=N)Nc1ccc(Cl)cc1 [5% Chlorhexidine, 1,1′-hexamethylene-bis(5-(p-chlorophenyl)-biguanide)]
time after which activity was lost: 10 min
